Test system: DLD1 cells
Assay: Effect of anti-cancer drug on cellular acidity (AO red fluorescence, flow cytometry) and cell growth
Format: cell-based, human
Details: DLD1 versus NCl/Adr cells at a given dose; AO red fluorescence after 6 hours exposure; growth 3 days after addition of drug, hemacytometer and trypan blue exclusion; FIG. 5
Experimental: Cells plated at 25% confluency were exposed to various doses of the drug for 6 hours and stained with AO (1 μg/ml, final concentration) for 30 minutes. Cells were washed 3× with PBS to remove residual stain, trypsinized to obtain a liquid suspension and assessed on a flow cytometer (FACSCalibur, Becton Dickinson San Jose Calif.). The red fluorescence of AO emanating from the cells was recorded on a linear scale in the cytometer's FL2 channel (emission filter >600 nm). A total of 30K cells were collected for post acquisition analysis with WinMDI Version 2.8 software (The Scripps Research Institute, La Jolla, Calif.). […] FIG. 5b plots the geometric mean of AO red fluorescence channel intensity against drug concentration for both DLD1 and NCl/Adr cells. In parallel cultures, cells were assessed for growth 3 days after the addition of drug (FIG. 5 c) —cells were enumerated with a hemacytometer and trypan blue exclusion staining.

CC(=O)O[C@H]1C(=O)[C@@]2(C)[C@H]([C@H](OC(=O)c3ccccc3)[C@]3(O)C[C@H](OC(=O)[C@H](O)[C@@H](NC(=O)c4ccccc4)c4ccccc4)C(C)=C1C3(C)C)[C@]1(OC(C)=O)CO[C@@H]1C[C@@H]2O [paclitaxel]
sensitivity of cancer cells to the drug (cell growth, reflected by acidic content of cells): DLD1 cells are more sensitive to paclitaxel than NCl/Adr

Reference: patent publication US20120040394A1, “MICROTUMOURS” (priority 2008, published 2012)
